EC50 data for 1 compound are collected here from patent publication US20140221499A1, “NOVEL RODENT CONTROL AGENTS AND USES THEREOF” (priority 2011, published 2014).

Usually EC50 stands for the concentration at which the effect is half-maximal. Low readings indicate a more potent agent, high ones a less potent agent.

Structures are written as SMILES.

The target of this experiment is T1, mTAAR7f (Mus musculus, UniProt Q5QD08).
T1 sequence (Q5QD08 1-358): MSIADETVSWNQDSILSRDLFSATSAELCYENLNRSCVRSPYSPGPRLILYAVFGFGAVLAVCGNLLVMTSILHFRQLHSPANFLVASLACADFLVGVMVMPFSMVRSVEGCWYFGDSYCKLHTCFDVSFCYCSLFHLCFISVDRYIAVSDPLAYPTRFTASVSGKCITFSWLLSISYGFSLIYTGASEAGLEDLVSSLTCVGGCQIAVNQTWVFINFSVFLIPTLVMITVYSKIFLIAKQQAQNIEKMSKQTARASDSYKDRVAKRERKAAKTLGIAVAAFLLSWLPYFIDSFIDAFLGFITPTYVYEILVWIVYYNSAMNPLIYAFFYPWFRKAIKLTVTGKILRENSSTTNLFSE
Briefly: CRE-SEAP reporter gene assay in HEK293 cells transfected with mTAAR7f. Type of experiment: cell-based. More on the design: Full Taar coding regions were cloned into pcDNA3.1; expressed in transfected cells; host or cells: HEK293. The settings on record: FIG. 11B, not the mutant mTAAR7f-SS, functional with or without 'Rho tag', EC50 ± s.e.m., 4-parameter Hill equation. The protocol: FIG. 11 illustrates the dose-dependent responses of TAARs to amines. HEK293 cells were cotransfected with plasmids encoding CRE-SEAP and rTAARs (a) or mTAARs (b), incubated with concentrations of ligands indicated, and assayed for reporter activity (triplicates±s.d.). EC50 values (±s.e.m, bottom right) were calculated using SigmaPlot (Systat Software) and a 4-parameter Hill equation.
Chemicals tested for the ability to activate mouse TAARs include those previously described (Liberles, S. D., and Buck, L. B. (2006) A second class of chemosensory receptors in the olfactory epithelium, Nature 442, 645-650), as well as the following mixes (5 μM of each indicated compounds). Mix 1: N,N-dimethyl-cyclohexylamine, N,N-dimethyl-phenylethylamine, creatinine, taurine. […]
Full Taar coding regions were cloned into pcDNA3.1-(Invitrogen) with or without a 5′ DNA extension of 69 bp encoding the first 20 amino acids of bovine rhodopsin followed by a cloning linker ([…]). […] Fluorescence was measured on an EnVision plate reader (Perkin Elmer) and SEAP activity graphed as relative fluorescence of a phosphatase substrate.
Here, we set out to identify agonists for additional mouse and rat TAARs. […] Transfected cells were incubated with test chemicals, and phosphatase activity was quantified with a fluorescent substrate as a reporter for TAAR activation. […]

As to `CN(C)C1CCCCC1` [N,N-DIMETHYLCYCLOHEXYLAMINE, N,N-dimethylcyclohexylamine], the EC50 turned out to be 0.44 ± 0.13 µM.
